According to patent publication US9999622B2, “Pyrazolothiazole compound and medicine comprising same” (NIPPON SHINYAKU CO., LTD., priority 2014, dated 2018):

Tests used:
Format in all cases: biochemical
[1] = molecular target: T1, JAK1 (Homo sapiens, UniProt P23458); test: JAK tyrosine kinase inhibitory activity in the presence of 1 mM ATP (ELISA), JAK1
T1 construct: purchased Carna Biosciences, Inc
Procedure: (§1) 1. Preparation of Test Compound
(§2) The test compound was dissolved in dimethyl sulfoxide (DMSO) to 10 mM and further diluted with DMSO to the concentrations of 1000, 100, 10, 1, 0.1 and 0.01 μM, respectively. For JAK1, these solutions of the test compound at the six concentrations 10 mM, 1000 μM, 100 μM, 10 μM, 1 μM and 0.1 μM were used. For JAK2 and JAK3, these solutions of the test compound at the six concentrations 1000 μM, 100 μM, 10 μM, 1 μM, 0.1 μM and 0.01 μM were used. The test compound solutions were diluted further to 20-fold with an assay buffer to obtain a sample solution. 15 mM Tris-HCl (pH7.5), 0.01 (v/v) % Tween-20 and 1 mM dithiothreitol were used as an assay buffer. DMSO was diluted to 20-fold with the assay buffer and was used as a negative control.
(§3) 2. JAK Tyrosine Kinase Inhibitory Activity in the Presence of 1 mM Atp
(§4) The activity was determined by ELISA method. Each of the sample solutions was added to a streptavidine coated 96-well plate (DELFIA Strip Plate 8×12 well, PerkinElmer) at 10 μL/well (n=2). […] Finally, JAK tyrosine kinase (Carna Biosciences, Inc.), which was previously diluted with the assay buffer to 7.5 nM for JAK1 and 0.75 nM for JAK2 and JAK3, was added to the plate at 20 μL/well, and the plate was incubated at 30° C. for 1 h. The plate was washed four times with buffer (50 mM Tris-HCl (pH 7.5), 150 mM NaCl, 0.02 (v/v) % Tween-20). A blocking buffer (0.1% Bovine Serum Albumin, 50 mM Tris-HCl (pH 7.5), 150 mM NaCl, 0.02 (v/v) % Tween-20) was added to the plate at 150 μL/well and the plate was blocked at 30° C. for 1 h. The blocking buffer was removed, and a horse radish peroxidase-labeled anti-phosphorylated tyrosine antibody (BD Biosciences, Inc.) (diluted to 10000-fold with the blocking buffer) was added to the plate at 100 μL/well, and the plate was incubated at 30° C. for 30 min. The plate was washed with the washing buffer four times, and 3,3′,5,5′-tetramethylbenizidine solution (Nacalai Tesque) was added to the plate at 100 μL/well to develop the color for 10 minutes. To the plate was added 0.1 M sulfuric acid at 100 μL/well to stop the reaction. The absorbance at 450 nm was measured using a microplate reader (BIO-RAD).
(§5) 3. Analysis of the Results

[2] = molecular target: T2, JAK2 (Homo sapiens, UniProt O60674); test: JAK tyrosine kinase inhibitory activity in the presence of 1 mM ATP (ELISA), JAK2
T2 construct: purchased Carna Biosciences, Inc
Procedure: as §1, §2, §3, §4, §5

[3] = molecular target: T3, JAK3 (Homo sapiens, UniProt P52333); test: JAK tyrosine kinase inhibitory activity in the presence of 1 mM ATP (ELISA), JAK3
T3 construct: purchased Carna Biosciences, Inc
T3 sequence (P52333 1-1124): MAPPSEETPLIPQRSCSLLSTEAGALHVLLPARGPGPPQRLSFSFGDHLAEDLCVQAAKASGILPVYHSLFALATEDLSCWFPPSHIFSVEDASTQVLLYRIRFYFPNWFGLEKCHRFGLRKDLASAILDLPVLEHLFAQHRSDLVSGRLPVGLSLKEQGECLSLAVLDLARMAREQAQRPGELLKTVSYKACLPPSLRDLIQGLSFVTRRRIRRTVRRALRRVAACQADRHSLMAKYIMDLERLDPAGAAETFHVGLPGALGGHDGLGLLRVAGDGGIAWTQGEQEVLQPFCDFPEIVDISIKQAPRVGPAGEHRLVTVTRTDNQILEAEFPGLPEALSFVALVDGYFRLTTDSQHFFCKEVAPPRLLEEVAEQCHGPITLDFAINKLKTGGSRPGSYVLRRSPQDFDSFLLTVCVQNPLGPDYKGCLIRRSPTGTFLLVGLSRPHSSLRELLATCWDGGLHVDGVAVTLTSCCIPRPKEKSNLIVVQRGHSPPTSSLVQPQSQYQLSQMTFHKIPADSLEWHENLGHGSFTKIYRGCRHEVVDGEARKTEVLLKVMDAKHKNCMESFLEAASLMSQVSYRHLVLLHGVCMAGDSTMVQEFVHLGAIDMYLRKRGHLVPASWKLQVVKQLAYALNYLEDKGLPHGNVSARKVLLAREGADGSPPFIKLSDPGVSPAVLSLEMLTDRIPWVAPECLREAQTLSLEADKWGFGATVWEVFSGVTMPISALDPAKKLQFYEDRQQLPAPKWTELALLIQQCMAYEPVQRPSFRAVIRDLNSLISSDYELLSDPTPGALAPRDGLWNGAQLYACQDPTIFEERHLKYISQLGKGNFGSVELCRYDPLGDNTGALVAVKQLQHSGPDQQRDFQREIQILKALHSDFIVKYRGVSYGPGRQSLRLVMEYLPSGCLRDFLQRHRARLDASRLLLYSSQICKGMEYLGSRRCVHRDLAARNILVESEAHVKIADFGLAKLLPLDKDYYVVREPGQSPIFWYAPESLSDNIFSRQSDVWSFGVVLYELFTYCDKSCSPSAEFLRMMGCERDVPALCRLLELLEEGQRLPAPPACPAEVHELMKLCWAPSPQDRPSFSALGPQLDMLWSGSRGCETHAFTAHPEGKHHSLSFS
Procedure: as §1, §2, §3, §4, §5

T2 sequence (O60674 whole entry): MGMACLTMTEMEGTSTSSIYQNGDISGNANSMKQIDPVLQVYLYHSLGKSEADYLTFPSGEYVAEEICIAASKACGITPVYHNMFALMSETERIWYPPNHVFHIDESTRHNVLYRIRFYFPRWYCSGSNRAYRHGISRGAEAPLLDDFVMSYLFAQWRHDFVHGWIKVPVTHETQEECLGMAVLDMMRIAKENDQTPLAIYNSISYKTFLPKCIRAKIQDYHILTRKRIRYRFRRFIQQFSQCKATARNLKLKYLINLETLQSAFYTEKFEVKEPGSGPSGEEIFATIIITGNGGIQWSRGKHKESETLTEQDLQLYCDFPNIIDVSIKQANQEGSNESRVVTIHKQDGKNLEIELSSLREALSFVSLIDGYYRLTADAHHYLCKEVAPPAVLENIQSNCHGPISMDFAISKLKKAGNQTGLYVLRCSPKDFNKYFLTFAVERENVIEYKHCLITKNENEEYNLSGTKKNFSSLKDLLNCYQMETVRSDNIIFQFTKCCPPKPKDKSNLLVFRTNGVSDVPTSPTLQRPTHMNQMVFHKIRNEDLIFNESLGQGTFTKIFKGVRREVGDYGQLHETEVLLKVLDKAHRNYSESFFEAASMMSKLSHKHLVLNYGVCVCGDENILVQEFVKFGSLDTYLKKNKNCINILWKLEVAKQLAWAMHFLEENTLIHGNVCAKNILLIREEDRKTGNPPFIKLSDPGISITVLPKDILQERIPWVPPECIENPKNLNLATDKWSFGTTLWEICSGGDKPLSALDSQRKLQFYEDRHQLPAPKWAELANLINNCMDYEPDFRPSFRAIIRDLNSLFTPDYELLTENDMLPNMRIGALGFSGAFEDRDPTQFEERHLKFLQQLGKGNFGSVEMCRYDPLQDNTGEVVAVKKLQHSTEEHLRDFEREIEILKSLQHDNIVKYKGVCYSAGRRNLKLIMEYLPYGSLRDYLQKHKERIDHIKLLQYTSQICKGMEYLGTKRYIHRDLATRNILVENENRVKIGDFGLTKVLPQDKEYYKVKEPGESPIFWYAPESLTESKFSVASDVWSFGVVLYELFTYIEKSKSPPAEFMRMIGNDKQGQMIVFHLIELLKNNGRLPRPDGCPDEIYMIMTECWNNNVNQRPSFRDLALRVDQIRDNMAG
T1 sequence (P23458 whole entry): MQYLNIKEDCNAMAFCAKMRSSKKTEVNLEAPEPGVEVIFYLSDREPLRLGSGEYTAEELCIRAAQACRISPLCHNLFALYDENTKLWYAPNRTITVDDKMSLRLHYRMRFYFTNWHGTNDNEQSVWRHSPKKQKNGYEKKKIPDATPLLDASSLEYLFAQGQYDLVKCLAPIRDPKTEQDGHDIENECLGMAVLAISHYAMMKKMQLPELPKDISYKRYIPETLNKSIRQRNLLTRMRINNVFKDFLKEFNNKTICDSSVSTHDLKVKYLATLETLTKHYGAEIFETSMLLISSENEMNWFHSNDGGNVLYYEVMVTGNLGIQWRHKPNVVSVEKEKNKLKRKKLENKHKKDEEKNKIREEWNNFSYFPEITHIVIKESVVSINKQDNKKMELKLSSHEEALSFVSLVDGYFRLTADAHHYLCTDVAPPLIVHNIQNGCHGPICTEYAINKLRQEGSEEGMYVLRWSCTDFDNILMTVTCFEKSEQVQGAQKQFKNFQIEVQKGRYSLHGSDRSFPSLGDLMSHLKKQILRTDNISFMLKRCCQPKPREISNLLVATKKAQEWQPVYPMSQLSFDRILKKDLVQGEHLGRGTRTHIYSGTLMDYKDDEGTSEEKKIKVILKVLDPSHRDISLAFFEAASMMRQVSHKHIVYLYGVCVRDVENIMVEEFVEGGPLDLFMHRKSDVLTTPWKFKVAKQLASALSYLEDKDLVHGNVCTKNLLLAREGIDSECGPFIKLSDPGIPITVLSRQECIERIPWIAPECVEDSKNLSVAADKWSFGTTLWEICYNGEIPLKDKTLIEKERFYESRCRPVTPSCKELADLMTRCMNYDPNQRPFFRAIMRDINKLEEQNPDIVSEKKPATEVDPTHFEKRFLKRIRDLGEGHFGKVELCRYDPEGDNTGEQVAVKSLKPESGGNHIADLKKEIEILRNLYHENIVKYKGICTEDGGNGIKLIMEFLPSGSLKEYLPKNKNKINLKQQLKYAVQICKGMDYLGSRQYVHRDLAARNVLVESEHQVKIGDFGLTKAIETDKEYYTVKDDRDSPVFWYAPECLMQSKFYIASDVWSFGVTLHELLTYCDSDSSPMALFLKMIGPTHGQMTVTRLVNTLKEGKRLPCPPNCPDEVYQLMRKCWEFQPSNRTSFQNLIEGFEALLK

SMILES | IC50 [1] [nM] | IC50 [2] [nM] | IC50 [3] [nM]
CC(C)(C)CNc1cc(C(=O)N2CCC(NC(=O)C3CC3)CC2)nc(-c2cnn3ccsc23)n1 [Example 15, N-[1-({6-[(2,2-Dimethylpropyl)amino]-2-(pyrazolo[5,1-b][1,3]thiazol-7-yl)pyrimidin-4-yl}carbonyl)piperidin-4-yl]cyclopropanecarboxamide] | 110 | 2500 | 7200
C[C@@H](COC(F)F)Nc1cc(C(=O)N2CCC(NC(=O)C3CC3)CC2)nc(-c2cnn3ccsc23)n1 [Example 17, N-(1-{[6-{[(2S)-1-(Difluoromethoxy)propan-2-yl]amino}-2-(pyrazolo[5,1-b][1,3]thiazol-7-yl)pyrimidin-4-yl]carbonyl}piperidin-4-yl)cyclopropanecarboxamide] | 230 | 5100 | 5800
Cc1c(N[C@@H](C)C2CC2)nc(-c2cnn3ccsc23)nc1C(=O)N1CCC(NC(=O)C(F)F)CC1 [Example 18, N-(1-{[6-{[(1S)-1-Cyclopropylethyl]amino}-5-methyl-2-(pyrazolo[5,1-b][1,3]thiazol-7-yl)pyrimidin-4-yl]carbonyl}piperidin-4-yl)-2,2-difluoroacetamide] | 310 | 2300 | 1700
CO[C@H]1CCC[C@@H]1Nc1cc(C(=O)N2CCC(NC(=O)C3CC3)CC2)nc(-c2cnn3ccsc23)n1 [Example 19, N-(1-{[6-{[(1S,2S)-2-Methoxycyclopentyl]amino}-2-(pyrazolo[5,1-b][1,3]thiazol-7-yl)pyrimidin-4-yl]carbonyl}piperidin-4-yl)cyclopropanecarboxamide] | 710 | 4400 | 6500
CC(C)OC(=O)NC1CCN(C(=O)c2cc(N[C@H](C)C(C)(C)C)nc(-c3cnn4ccsc34)n2)CC1 [Example 29, Propan-2-yl (1-{[6-{[(2R)-3,3-dimethylbutan-2-yl]amino}-2-(pyrazolo[5,1-b][1,3]thiazol-7-yl)pyrimidin-4-yl]carbonyl}piperidin-4-yl)carbamate] | 140 | 1200 | 3000
C[C@H](Nc1cc(C(=O)N2CCC(NC(=O)c3ccccc3)CC2)nc(-c2cnn3ccsc23)n1)C1CC1 [Example 30, N-(1-{[6-{[(1S)-1-Cyclopropylethyl]amino}-2-(pyrazolo[5,1-b][1,3]thiazol-7-yl)pyrimidin-4-yl]carbonyl}piperidin-4-yl)benzamide] | 110 | 1400 | > 10000
C[C@H](Nc1cc(C(=O)N2CCC(NC(=O)c3cccs3)CC2)nc(-c2cnn3ccsc23)n1)C1CC1 [Example 32, N-(1-{[6-{[(1S)-1-Cyclopropylethyl]amino}-2-(pyrazolo[5,1-b][1,3]thiazol-7-yl)pyrimidin-4-yl]carbonyl}piperidin-4-yl)thiophene-2-carboxamide] | 380 | 1800 | > 10000
C[C@H](Nc1cc(C(=O)N2CCC(NC(=O)NC3CC3)CC2)nc(-c2cnn3ccsc23)n1)C1CC1 [Example 34, 1-Cyclopropyl-3-(1-{[6-{[(1S)-1-cyclopropylethyl]amino}-2-(pyrazolo[5,1-b][1,3]thiazol-7-yl)pyrimidin-4-yl]carbonyl}piperidin-4-yl)urea] | 350 | 1900 | 3000
C[C@@H](C1CC1)N(C)c1cc(C(=O)N2CCC(Nc3ncccn3)CC2)nc(-c2cnn3ccsc23)n1 [Example 35, [6-{[(1S)-1-Cyclopropylethyl](methyl)amino}-2-(pyrazolo[5,1-b][1,3]thiazol-7-yl)pyrimidin-4-yl][4-(pyrimidin-2-ylamino)piperidin-1-yl]methanone] | 270 | 2400 | > 10000
CC(C)(C)Nc1cc(C(=O)N2CCC(NC(=O)C3CC3)CC2)nc(-c2cnn3ccsc23)n1 [Example 36, N-(1-{[6-(tert-Butylamino)-2-(pyrazolo[5,1-b][1,3]thiazol-7-yl)pyrimidin-4-yl]carbonyl}piperidin-4-yl)cyclopropanecarboxamide] | 86 | 620 | > 10000
CC1(Nc2cc(C(=O)N3CCC(NC(=O)C4CC4)CC3)nc(-c3cnn4ccsc34)n2)CC1 [Example 37, N-[1-({6-[(1-Methylcyclopropyl)amino] 2 (pyrazolo[5,1-b][1,3]thiazol-7-yl)pyrimidin-4-yl}carbonyl)piperidin-4-yl]cyclopropanecarboxamide] | 240 | 1600 | > 10000
COCC(C)(C)Nc1cc(C(=O)N2CCC(NC(=O)C3CC3)CC2)nc(-c2cnn3ccsc23)n1 [Example 38, N-[1-({6-[(1-Methoxy-2-methylpropan-2-yl)amino]-2-(pyrazolo[5,1-b][1,3]thiazol-7-yl)pyrimidin-4-yl}carbonyl)piperidin-4-yl]cyclopropanecarboxamide] | 260 | 1200 | > 10000
COC(=O)NC1CCN(C(=O)c2cc(N[C@H](C)C(C)(C)C)nc(-c3cnn4ccsc34)n2)CC1 [Example 39, Methyl (1-{[6-{[(2R)-3,3-dimethylbutan-2-yl]amino}-2-(pyrazolo[5,1-b][1,3]thiazol-7-yl)pyrimidin-4-yl]carbonyl}piperidin-4-yl)carbamate] | 140 | 1300 | 2900
O=C(NC1CCN(C(=O)c2cc(OCC3CC3)nc(-c3cnn4ccsc34)n2)CC1)C1CC1 [Example 43, N-(1-{[6-(Cyclopropylmethoxy)-2-(pyrazolo[5,1-b][1,3]thiazol-7-yl)pyrimidin-4-yl]carbonyl}piperidin-4-yl)cyclopropanecarboxamide] | 130 | > 10000 | > 10000
CC(Oc1cc(C(=O)N2CCC(NC(=O)C3CC3)CC2)nc(-c2cnn3ccsc23)n1)C(C)(C)C (stereo not drawn) [Example 44, N-[1-({6-[(3,3-Dimethylbutan 2 yl)oxy]-2-(pyrazolo[5,1-b][1,3]thiazol-7-yl)pyrimidin-4-yl}carbonyl)piperidin-4-yl]cyclopropanecarboxamide] | 66 | 1300 | > 10000
O=C(NC1CCN(C(=O)c2cc(OC3CCC3)nc(-c3cnn4ccsc34)n2)CC1)C1CC1 [Example 45, N-(1-{[6-(Cyclobutyloxy)-2-(pyrazolo[5,1-b][1,3]thiazol-7-yl)pyrimidin-4-yl]carbonyl}piperidin-4-yl)cyclopropanecarboxamide] | 310 | 5700 | > 10000
